ChEMBL document CHEMBL1201862, “PubChem BioAssay data set” (2004)
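1) Cells in 96-well plates. 2) Compound, 48 h, 5 concentrations. 3) Linear interpolation between surrounding doses. 4) Unreached endpoint = highest concentration. GI50: concentration for 50% inhibition of growth.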 Calls of active or inactive are those of the source. No stated cut-off is given here; in the data, active = GI50 up to about 1.1 µM and inactive = higher.

Legend:
Assay in all cases: inhibition of tumour cell growth, NCI panel, 48 h
786-0 = tested on: 786-0
A549 = tested on: A549
ACHN = tested on: ACHN
EKVX = tested on: EKVX
HCC 2998 = tested on: HCC 2998
K562 = tested on: K562
M14 = tested on: M14
NCI-H23 = tested on: NCI-H23
RPMI-8226 = tested on: RPMI-8226
RXF 393 = tested on: RXF 393
SK-MEL-28 = tested on: SK-MEL-28
SK-MEL-2 = tested on: SK-MEL-2
SK-MEL-5 = tested on: SK-MEL-5
SK-OV-3 = tested on: SK-OV-3
SNB-19 = tested on: SNB-19
SNB-75 = tested on: SNB-75
SR = tested on: SR
U-251 = tested on: U-251
Malme-3M = tested on: Malme-3M

Structure (SMILES) | GI50 (786-0) | GI50 (A549) | GI50 (ACHN) | GI50 (EKVX) | GI50 (HCC 2998) | GI50 (K562) | GI50 (M14) | GI50 (NCI-H23) | GI50 (RPMI-8226) | GI50 (RXF 393) | GI50 (SK-MEL-28) | GI50 (SK-MEL-2) | GI50 (SK-MEL-5) | GI50 (SK-OV-3) | GI50 (SNB-19) | GI50 (SNB-75) | GI50 (SR) | GI50 (U-251) | GI50 (Malme-3M)
CCOc1cc2c(cc1O)CC[C@@H]1[C@@H]2CC[C@]2(C)[C@@H](O)CC[C@@H]12 | 0.0301 µM (active) | 0.0378 µM (active) | 0.0123 µM (active) | 0.497 µM (active) | 0.532 µM (active) | < 0.0171 µM (active) | 0.0261 µM (active) | 0.0667 µM (active) | 0.0252 µM (active) | 0.0387 µM (active) | 0.443 µM (active) | 0.118 µM (active) | 0.0188 µM (active) | 0.138 µM (active) | 0.0334 µM (active) | 0.0168 µM (active) | < 0.0192 µM (active) | 0.0803 µM (active) | –
Cc1cc(N(CCC#N)CCC#N)ccc1CC1N=C(c2ccccc2)OC1=O (configuration not stated) | > 100 µM (inactive) | > 100 µM (inactive) | > 100 µM (inactive) | > 100 µM (inactive) | > 100 µM (inactive) | > 100 µM (inactive) | > 100 µM (inactive) | > 100 µM (inactive) | > 100 µM (inactive) | – | > 100 µM (inactive) | > 100 µM (inactive) | > 100 µM (inactive) | > 100 µM (inactive) | > 100 µM (inactive) | > 100 µM (inactive) | – | > 100 µM (inactive) | > 100 µM (inactive)
Cc1ccc(C)c2c1C1CCCCC3(OCCCO3)C21O (configuration not stated) | > 100 µM (inactive) | > 100 µM (inactive) | > 100 µM (inactive) | – | > 100 µM (inactive) | > 100 µM (inactive) | > 100 µM (inactive) | > 100 µM (inactive) | > 100 µM (inactive) | > 100 µM (inactive) | > 100 µM (inactive) | > 100 µM (inactive) | > 100 µM (inactive) | > 100 µM (inactive) | > 100 µM (inactive) | 31.7 µM (inactive) | – | > 100 µM (inactive) | > 100 µM (inactive)
O=C1c2cccc3cc([N+](=O)[O-])cc(c23)C(=O)N1CCCN1CCN(CCCNc2ccc3ncn4c5ccccc5c(=O)c2c34)CC1 | < 0.005 µM (active) | < 0.005 µM (active) | < 0.005 µM (active) | < 0.005 µM (active) | < 0.005 µM (active) | – | < 0.005 µM (active) | < 0.005 µM (active) | < 0.005 µM (active) | < 0.005 µM (active) | 0.0562 µM (active) | 0.0191 µM (active) | – | 0.0198 µM (active) | < 0.005 µM (active) | < 0.005 µM (active) | – | < 0.005 µM (active) | < 0.005 µM (active)
O=C(O)C1=C(C(=O)O)Oc2ccccc2O1 | > 100 µM (inactive) | > 100 µM (inactive) | > 100 µM (inactive) | > 100 µM (inactive) | > 100 µM (inactive) | > 100 µM (inactive) | > 100 µM (inactive) | > 100 µM (inactive) | – | > 100 µM (inactive) | > 100 µM (inactive) | > 100 µM (inactive) | – | > 100 µM (inactive) | > 100 µM (inactive) | > 100 µM (inactive) | > 100 µM (inactive) | > 100 µM (inactive) | > 100 µM (inactive)
CN(C(=O)c1cccs1)C(=S)N1CCN(c2ccccn2)CC1 | > 100 µM (inactive) | > 100 µM (inactive) | > 100 µM (inactive) | – | – | > 100 µM (inactive) | > 100 µM (inactive) | > 100 µM (inactive) | > 100 µM (inactive) | > 100 µM (inactive) | > 100 µM (inactive) | > 100 µM (inactive) | > 100 µM (inactive) | > 100 µM (inactive) | > 100 µM (inactive) | > 100 µM (inactive) | – | > 100 µM (inactive) | > 100 µM (inactive)
CCOC(=O)C1COc2cc(-c3cc(=O)c4ccccc4o3)ccc2O1 (configuration not stated) | > 100 µM (inactive) | > 100 µM (inactive) | > 100 µM (inactive) | 95.1 µM (inactive) | > 100 µM (inactive) | > 100 µM (inactive) | > 100 µM (inactive) | > 100 µM (inactive) | – | 47.8 µM (inactive) | > 100 µM (inactive) | > 100 µM (inactive) | > 100 µM (inactive) | > 100 µM (inactive) | > 100 µM (inactive) | 47.9 µM (inactive) | > 100 µM (inactive) | > 100 µM (inactive) | > 100 µM (inactive)
O=c1sc(-c2nc3ccccc3[nH]2)c(/N=C/c2ccccc2)n1-c1ccccc1 | 42.9 µM (inactive) | 57.4 µM (inactive) | 65.2 µM (inactive) | > 100 µM (inactive) | > 100 µM (inactive) | 75 µM (inactive) | 48.9 µM (inactive) | > 100 µM (inactive) | > 100 µM (inactive) | 62.4 µM (inactive) | > 100 µM (inactive) | 63 µM (inactive) | 29.9 µM (inactive) | 42.6 µM (inactive) | 53.7 µM (inactive) | 21.6 µM (inactive) | – | 68.7 µM (inactive) | 92.7 µM (inactive)
